Measured values reported in patent publication US8653041B2, “Antibacterial aminoglycoside analogs” (Achaogen, Inc., priority 2010, dated 2014).
≈ marks a conversion by molar mass, not a printed value. Like-named read-outs stand apart in the source and are kept apart here. One block for each molecule: values may come before it.

Assays:
Acinetobacter baumannii = assay: MIC, CLSI broth microdilution, Acinetobacter baumannii panel; type: cell-based; settings: Acinetobacter baumannii, read-out: MIC
Experimental: (§1) Minimum inhibitory concentrations (MIC) were determined by reference Clinical and Laboratory Standards Institute (CLSI) broth microdilution methods per M7-A7 [2006]. Quality control ranges utilizing E. coli ATCC 25922, P. aeruginosa ATCC 27853 and S. aureus ATCC 29213, and interpretive criteria for comparator agents were as published in CLSI M100-S17 [2007]. Briefly, serial two-fold dilutions of the test compounds were prepared at 2× concentration in Mueller Hinton Broth. The compound dilutions were mixed in 96-well assay plates in a 1:1 ratio with bacterial inoculum. The inoculum was prepared by suspension of a colony from an agar plate that was prepared the previous day. Bacteria were suspended in sterile saline and added to each assay plate to obtain a final concentration of 5×10^5 CFU/mL. The plates were incubated at 35 C for 20 hours in ambient air.
The MIC panel presented in Table 2 contains 29 isolates of Acinetobacter baumannii: strains 1-24 are clinical isolates from around the world collected between 2004-2007 which contain representative resistance mechanisms commonly found in Acinetobacter baumannii, such as AAC(3)-I and II, AAC(6′)-I, ANT(2″)-I, APH(3′)-VI, and perm/efflux; strains 25-29 are susceptible.

Pseudomonas aeruginosa = assay: MIC, CLSI broth microdilution, Pseudomonas aeruginosa panel; type: cell-based
Experimental: as §1
The MIC panel presented in Table 1 contains 27 isolates of Pseudomonas aeruginosa: strains 1-22 are clinical isolates from around the world collected between 2004-2007 which contain representative resistance mechanisms commonly found in Pseudomonas, such as the AAC(6′)-I, AAC(6′)-II, APH(3′)-IIb, ANT(2″)-I, and perm/efflux; strains 23-27 are susceptible.

MIC (Acinetobacter baumannii; A. baumannii clinical strain 1 (resistant clinical isolate)): 1 to 8 µg/mL (≈ 1.34 to 10.8 µM)
MIC (Acinetobacter baumannii; A. baumannii clinical strain 2 (resistant clinical isolate)): 8 to 16 µg/mL (≈ 10.8 to 21.5 µM)
MIC (Acinetobacter baumannii; A. baumannii clinical strain 3 (resistant clinical isolate)): 1 to 8 µg/mL (≈ 1.34 to 10.8 µM)
MIC (Acinetobacter baumannii; A. baumannii clinical strain 4 (resistant clinical isolate)): 16 to 32 µg/mL (≈ 21.5 to 43 µM)
MIC (Acinetobacter baumannii; A. baumannii clinical strain 5 (resistant clinical isolate)): 1 to 8 µg/mL (≈ 1.34 to 10.8 µM)
MIC (Acinetobacter baumannii; A. baumannii clinical strain 6 (resistant clinical isolate)): 1 to 8 µg/mL (≈ 1.34 to 10.8 µM)
MIC (Acinetobacter baumannii; A. baumannii clinical strain 7 (resistant clinical isolate)): ≤ 1 µg/mL
MIC (Acinetobacter baumannii; A. baumannii clinical strain 8 (resistant clinical isolate)): 1 to 8 µg/mL (≈ 1.34 to 10.8 µM)
MIC (Acinetobacter baumannii; A. baumannii clinical strain 9 (resistant clinical isolate)): ≤ 1 µg/mL
MIC (Acinetobacter baumannii; A. baumannii clinical strain 10 (resistant clinical isolate)): 1 to 8 µg/mL (≈ 1.34 to 10.8 µM)
MIC (Acinetobacter baumannii; A. baumannii clinical strain 11 (resistant clinical isolate)): ≤ 1 µg/mL
MIC (Acinetobacter baumannii; A. baumannii clinical strain 12 (resistant clinical isolate)): ≤ 1 µg/mL
MIC (Acinetobacter baumannii; A. baumannii clinical strain 13 (resistant clinical isolate)): ≤ 1 µg/mL
MIC (Acinetobacter baumannii; A. baumannii clinical strain 14 (resistant clinical isolate)): 1 to 8 µg/mL (≈ 1.34 to 10.8 µM)
MIC (Acinetobacter baumannii; A. baumannii clinical strain 15 (resistant clinical isolate)): ≤ 1 µg/mL
MIC (Acinetobacter baumannii; A. baumannii clinical strain 16 (resistant clinical isolate)): 1 to 8 µg/mL (≈ 1.34 to 10.8 µM)
MIC (Acinetobacter baumannii; A. baumannii clinical strain 17 (resistant clinical isolate)): 1 to 8 µg/mL (≈ 1.34 to 10.8 µM)
MIC (Acinetobacter baumannii; A. baumannii clinical strain 18 (resistant clinical isolate)): 8 to 16 µg/mL (≈ 10.8 to 21.5 µM)
MIC (Acinetobacter baumannii; A. baumannii clinical strain 19 (resistant clinical isolate)): 1 to 8 µg/mL (≈ 1.34 to 10.8 µM)
MIC (Acinetobacter baumannii; A. baumannii clinical strain 20 (resistant clinical isolate)): 8 to 16 µg/mL (≈ 10.8 to 21.5 µM)
MIC (Acinetobacter baumannii; A. baumannii clinical strain 21 (resistant clinical isolate)): ≤ 1 µg/mL
MIC (Acinetobacter baumannii; A. baumannii clinical strain 22 (resistant clinical isolate)): 16 to 32 µg/mL (≈ 21.5 to 43 µM)
MIC (Acinetobacter baumannii; A. baumannii clinical strain 23 (resistant clinical isolate)): ≤ 1 µg/mL
MIC (Acinetobacter baumannii; A. baumannii clinical strain 24 (resistant clinical isolate)): 16 to 32 µg/mL (≈ 21.5 to 43 µM)
MIC (Acinetobacter baumannii; A. baumannii strain 25 (susceptible)): ≤ 1 µg/mL
MIC (Acinetobacter baumannii; A. baumannii strain 26 (susceptible)): 1 to 8 µg/mL (≈ 1.34 to 10.8 µM)
MIC (Acinetobacter baumannii; A. baumannii strain 27 (susceptible)): ≤ 1 µg/mL
MIC (Acinetobacter baumannii; A. baumannii strain 28 (susceptible)): ≤ 1 µg/mL
MIC (Acinetobacter baumannii; A. baumannii strain 29 (susceptible)): ≤ 1 µg/mL
MIC (Pseudomonas aeruginosa; Pseudomonas aeruginosa, P. aeruginosa clinical strain 1 (resistant clinical isolate), read-out: MIC): ≤ 1 µg/mL
MIC (Pseudomonas aeruginosa; Pseudomonas aeruginosa, P. aeruginosa clinical strain 2 (resistant clinical isolate), read-out: MIC): ≤ 1 µg/mL
MIC (Pseudomonas aeruginosa; Pseudomonas aeruginosa, P. aeruginosa clinical strain 3 (resistant clinical isolate), read-out: MIC): 1 to 8 µg/mL (≈ 1.34 to 10.8 µM)
MIC (Pseudomonas aeruginosa; Pseudomonas aeruginosa, P. aeruginosa clinical strain 4 (resistant clinical isolate), read-out: MIC): 1 to 8 µg/mL (≈ 1.34 to 10.8 µM)
MIC (Pseudomonas aeruginosa; Pseudomonas aeruginosa, P. aeruginosa clinical strain 5 (resistant clinical isolate), read-out: MIC): 1 to 8 µg/mL (≈ 1.34 to 10.8 µM)
MIC (Pseudomonas aeruginosa; Pseudomonas aeruginosa, P. aeruginosa clinical strain 6 (resistant clinical isolate), read-out: MIC): 1 to 8 µg/mL (≈ 1.34 to 10.8 µM)
MIC (Pseudomonas aeruginosa; Pseudomonas aeruginosa, P. aeruginosa clinical strain 7 (resistant clinical isolate), read-out: MIC): ≤ 1 µg/mL
MIC (Pseudomonas aeruginosa; Pseudomonas aeruginosa, P. aeruginosa clinical strain 8 (resistant clinical isolate), read-out: MIC): 8 to 16 µg/mL (≈ 10.8 to 21.5 µM)
MIC (Pseudomonas aeruginosa; Pseudomonas aeruginosa, P. aeruginosa clinical strain 9 (resistant clinical isolate), read-out: MIC): 1 to 8 µg/mL (≈ 1.34 to 10.8 µM)
MIC (Pseudomonas aeruginosa; Pseudomonas aeruginosa, P. aeruginosa clinical strain 10 (resistant clinical isolate), read-out: MIC): 8 to 16 µg/mL (≈ 10.8 to 21.5 µM)
MIC (Pseudomonas aeruginosa; Pseudomonas aeruginosa, P. aeruginosa clinical strain 11 (resistant clinical isolate), read-out: MIC): ≤ 1 µg/mL
MIC (Pseudomonas aeruginosa; Pseudomonas aeruginosa, P. aeruginosa clinical strain 12 (resistant clinical isolate), read-out: MIC): 1 to 8 µg/mL (≈ 1.34 to 10.8 µM)
MIC (Pseudomonas aeruginosa; Pseudomonas aeruginosa, P. aeruginosa clinical strain 13 (resistant clinical isolate), read-out: MIC): 16 to 32 µg/mL (≈ 21.5 to 43 µM)
MIC (Pseudomonas aeruginosa; Pseudomonas aeruginosa, P. aeruginosa clinical strain 14 (resistant clinical isolate), read-out: MIC): 1 to 8 µg/mL (≈ 1.34 to 10.8 µM)
MIC (Pseudomonas aeruginosa; Pseudomonas aeruginosa, P. aeruginosa clinical strain 15 (resistant clinical isolate), read-out: MIC): 1 to 8 µg/mL (≈ 1.34 to 10.8 µM)
MIC (Pseudomonas aeruginosa; Pseudomonas aeruginosa, P. aeruginosa clinical strain 16 (resistant clinical isolate), read-out: MIC): 1 to 8 µg/mL (≈ 1.34 to 10.8 µM)
MIC (Pseudomonas aeruginosa; Pseudomonas aeruginosa, P. aeruginosa clinical strain 17 (resistant clinical isolate), read-out: MIC): 1 to 8 µg/mL (≈ 1.34 to 10.8 µM)
MIC (Pseudomonas aeruginosa; Pseudomonas aeruginosa, P. aeruginosa clinical strain 18 (resistant clinical isolate), read-out: MIC): 1 to 8 µg/mL (≈ 1.34 to 10.8 µM)
MIC (Pseudomonas aeruginosa; Pseudomonas aeruginosa, P. aeruginosa clinical strain 19 (resistant clinical isolate), read-out: MIC): 16 to 32 µg/mL (≈ 21.5 to 43 µM)
MIC (Pseudomonas aeruginosa; Pseudomonas aeruginosa, P. aeruginosa clinical strain 20 (resistant clinical isolate), read-out: MIC): 16 to 32 µg/mL (≈ 21.5 to 43 µM)
MIC (Pseudomonas aeruginosa; Pseudomonas aeruginosa, P. aeruginosa clinical strain 21 (resistant clinical isolate), read-out: MIC): 8 to 16 µg/mL (≈ 10.8 to 21.5 µM)
MIC (Pseudomonas aeruginosa; Pseudomonas aeruginosa, P. aeruginosa clinical strain 22 (resistant clinical isolate), read-out: MIC): 1 to 8 µg/mL (≈ 1.34 to 10.8 µM)
MIC (Pseudomonas aeruginosa; Pseudomonas aeruginosa, P. aeruginosa strain 23 (susceptible), read-out: MIC): ≤ 1 µg/mL
MIC (Pseudomonas aeruginosa; Pseudomonas aeruginosa, P. aeruginosa strain 24 (susceptible), read-out: MIC): ≤ 1 µg/mL
MIC (Pseudomonas aeruginosa; Pseudomonas aeruginosa, P. aeruginosa strain 25 (susceptible), read-out: MIC): ≤ 1 µg/mL
MIC (Pseudomonas aeruginosa; Pseudomonas aeruginosa, P. aeruginosa strain 26 (susceptible), read-out: MIC): ≤ 1 µg/mL
MIC (Pseudomonas aeruginosa; Pseudomonas aeruginosa, P. aeruginosa strain 27 (susceptible), read-out: MIC): ≤ 1 µg/mL
SMILES: NCC[C@H](O)C(=O)N[C@@H]1C[C@H](N)[C@@H](O[C@H]2O[C@H](CNCCO)[C@@H](O)C[C@H]2N)[C@H](O[C@@H]2O[C@H](CO)[C@@H](O[C@H]3O[C@@H](CN)[C@@H](O)[C@H](O)[C@H]3N)[C@H]2O)[C@H]1O [Compound 18]

SMILES: NC[C@@H]1O[C@H](O[C@H]2[C@@H](O)[C@H](O[C@@H]3[C@@H](O)[C@H](N)C[C@H](N)[C@H]3O[C@H]3O[C@H](CN)[C@@H](O)[C@H](O)[C@H]3N)O[C@@H]2CO)[C@H](N)[C@@H](O)[C@@H]1O [Neo B, neomycin B]
MIC (Pseudomonas aeruginosa; P. aeruginosa clinical strain 1 (resistant clinical isolate)): E (MIC's greater than or equal to 32.0 μg/mL = E)
MIC (Pseudomonas aeruginosa; P. aeruginosa clinical strain 2 (resistant clinical isolate)): D (MIC's greater than or equal to 16.0 μg/mL and lower than 32 μg/mL = D)
MIC (Pseudomonas aeruginosa; P. aeruginosa clinical strain 3 (resistant clinical isolate)): E (MIC's greater than or equal to 32.0 μg/mL = E)
MIC (Pseudomonas aeruginosa; P. aeruginosa clinical strain 4 (resistant clinical isolate)): E (MIC's greater than or equal to 32.0 μg/mL = E)
MIC (Pseudomonas aeruginosa; P. aeruginosa clinical strain 5 (resistant clinical isolate)): E (MIC's greater than or equal to 32.0 μg/mL = E)
MIC (Pseudomonas aeruginosa; P. aeruginosa clinical strain 6 (resistant clinical isolate)): D (MIC's greater than or equal to 16.0 μg/mL and lower than 32 μg/mL = D)
MIC (Pseudomonas aeruginosa; P. aeruginosa clinical strain 7 (resistant clinical isolate)): C (MIC's greater than or equal to 8 μg/mL and lower than 16.0 μg/mL = C)
MIC (Pseudomonas aeruginosa; P. aeruginosa clinical strain 8 (resistant clinical isolate)): E (MIC's greater than or equal to 32.0 μg/mL = E)
MIC (Pseudomonas aeruginosa; P. aeruginosa clinical strain 9 (resistant clinical isolate)): D (MIC's greater than or equal to 16.0 μg/mL and lower than 32 μg/mL = D)
MIC (Pseudomonas aeruginosa; P. aeruginosa clinical strain 10 (resistant clinical isolate)): E (MIC's greater than or equal to 32.0 μg/mL = E)
MIC (Pseudomonas aeruginosa; P. aeruginosa clinical strain 11 (resistant clinical isolate)): B (MIC's of greater than 1.0 μg/mL and lower than 8 μg/mL = B)
MIC (Pseudomonas aeruginosa; P. aeruginosa clinical strain 12 (resistant clinical isolate)): E (MIC's greater than or equal to 32.0 μg/mL = E)
MIC (Pseudomonas aeruginosa; P. aeruginosa clinical strain 13 (resistant clinical isolate)): E (MIC's greater than or equal to 32.0 μg/mL = E)
MIC (Pseudomonas aeruginosa; P. aeruginosa clinical strain 14 (resistant clinical isolate)): E (MIC's greater than or equal to 32.0 μg/mL = E)
MIC (Pseudomonas aeruginosa; P. aeruginosa clinical strain 15 (resistant clinical isolate)): E (MIC's greater than or equal to 32.0 μg/mL = E)
MIC (Pseudomonas aeruginosa; P. aeruginosa clinical strain 16 (resistant clinical isolate)): E (MIC's greater than or equal to 32.0 μg/mL = E)
MIC (Pseudomonas aeruginosa; P. aeruginosa clinical strain 17 (resistant clinical isolate)): C (MIC's greater than or equal to 8 μg/mL and lower than 16.0 μg/mL = C)
MIC (Pseudomonas aeruginosa; P. aeruginosa clinical strain 18 (resistant clinical isolate)): E (MIC's greater than or equal to 32.0 μg/mL = E)
MIC (Pseudomonas aeruginosa; P. aeruginosa clinical strain 19 (resistant clinical isolate)): E (MIC's greater than or equal to 32.0 μg/mL = E)
MIC (Pseudomonas aeruginosa; P. aeruginosa clinical strain 20 (resistant clinical isolate)): E (MIC's greater than or equal to 32.0 μg/mL = E)
MIC (Pseudomonas aeruginosa; P. aeruginosa clinical strain 21 (resistant clinical isolate)): E (MIC's greater than or equal to 32.0 μg/mL = E)
MIC (Pseudomonas aeruginosa; P. aeruginosa clinical strain 22 (resistant clinical isolate)): E (MIC's greater than or equal to 32.0 μg/mL = E)
MIC (Pseudomonas aeruginosa; P. aeruginosa strain 23 (susceptible)): B (MIC's of greater than 1.0 μg/mL and lower than 8 μg/mL = B)
MIC (Pseudomonas aeruginosa; P. aeruginosa strain 24 (susceptible)): B (MIC's of greater than 1.0 μg/mL and lower than 8 μg/mL = B)
MIC (Pseudomonas aeruginosa; P. aeruginosa strain 25 (susceptible)): B (MIC's of greater than 1.0 μg/mL and lower than 8 μg/mL = B)
MIC (Pseudomonas aeruginosa; P. aeruginosa strain 26 (susceptible)): C (MIC's greater than or equal to 8 μg/mL and lower than 16.0 μg/mL = C)
MIC (Pseudomonas aeruginosa; P. aeruginosa strain 27 (susceptible)): B (MIC's of greater than 1.0 μg/mL and lower than 8 μg/mL = B)
